Source: patent US8722629B2, “Auristatin derivatives and use thereof” (Seattle Genetics, Inc., priority 2010, dated 2014)
pIC50: −log10 of the molar value. Where a name gives a salt, the structure may show the parent alone. Starred links: 1 amine or outer side, 2 acyl side, 3 side chain; linkers in the order of their positions; H or OH if unused. Non-standard residues stand in square brackets, D forms with d. Residues, ends and D or L forms follow the SMILES beside them. *: point of attachment. NMeVal(N-(CH2)3COOH) = CC(C)[C@@H](C(=O)*)N(C)CCCC(=O)O; Dolaproine = CO[C@@H]([C@@H]1CCCN1)[C@@H](C)C(=O)O; X4 = O=C([C@]1(N[*:1])C[C@H]1c1ccccc1)[*:2]; Dil = CC[C@H](C)[C@H](NC)[C@@H](CC(=O)O)OC; X7 = COC(=O)CCCN(C)[C@H](C(=O)*)C(C)C; αMeF = C[C@](N)(Cc1ccccc1)C(=O)O; X5 = CC(C)[C@@H](C(=O)*)N(C)CCO; Oxazinan2yl(1,2) = C1CCN(*)OC1; NMeV = CN[C@H](C(=O)O)C(C)C; X3 = c1ccc2c(c1)CON(*)C2; X6 = C1=CC2CCC1ON2*

How the values were obtained:
[1] = test system: human colon carcinoma cell line HT29 wt (wild type); assay: Antiproliferative effect on the HT29 wt cell line (MTT assay); format: cell-based; settings: 10% FCS, incubation 48 h to 96 h
Protocol: B-2. Determination of the Antiproliferative Effect on the HT29 Wt Cell Line:
A defined cell number of the human colon carcinoma cell line HT29 wt (wild type) was sown in a 96-well microtiter plate in complete medium (10% FCS-RPMI) (2500 cells/well) and incubated at 37° C./5% CO2 overnight. After 18 h, the sowing medium was replaced by fresh medium with 10% FCS. Treatment was initiated by addition of the respective test substance. From the substances to be investigated, dose/activity curves in a concentration range of from 10^−5 M to 10^−14 M (1:10-dilution series) were determined. The chosen incubation times were from 48 h to 96 h. Pro-liferation was determined with the aid of the MTT assays (ATCC, Manassas, Va., USA, catalogue No. 30-1010K). After the incubation time, the MTT reagent was incubated with the cells for 4 h, and the cells were subsequently lysed by adding the detergent overnight. The dye formed was detected at 570 nm. Proliferation of cells which had not been treated with test substance, but had otherwise been treated identically, was defined as 100%. The data obtained from this test are triple determinations, and at least two independent experiments were carried out.

[2] = test system: human renal cancer cell line 786-0; assay: Antiproliferative effect on the 786-0 RCC cell line (MTT assay); format: cell-based; settings: incubation 48 h to 96 h
Protocol: B-1. Determination of the Antiproliferative Effect on the 786-0 RCC Cell Line:
A defined cell number of the human renal cancer cell line 786-0 was sown in a 96-well microtiter plate in complete medium (2500 or 7000 cells/well) and incubated at 37° C./5% CO2 overnight. After 18 h, the sowing medium was replaced by serum-free medium or medium with 2% FCS. Treatment was initiated by addition of the respective test substance in varying concentration (10^−5 M to […]). The chosen incubation times were from 48 h to 96 h. Proliferation was determined with the aid of the MTT assays (ATCC, Manassas, Va., USA, catalogue No. 30-1010K). After the incubation time, the MTT reagent was incubated with the cells for 4 h, and the cells were subsequently lysed by adding the detergent overnight. The dye formed was detected at 570 nm. […] The data obtained from this test are triple determinations, and at least two independent experiments were carried out.

[3] = Plasma stability in vitro, rat plasma; format: in vitro ADME; settings: male, Wistar, rat plasma (Li heparin), 37° C., Method A (HPLC)
Protocol: B-4. Determination of the Plasma Stability in vitro:
1 mg of the test substance in question was dissolved in 0.5 ml of acetonitrile/DMSO (9:1). From this solution, 20 μl were removed and added to 1 ml of rat or human plasma at 37° C. (plasma of male Wistar rats with Li heparin from Harlan & Winkelmann or fresh human leukocyte-depleted plasma originating from a whole blood sample). From this plasma solution, which was shaken vigorously, 100 μl aliquots were removed immediately after addition of the sample (initial value as reference) and then after 5, 10, 30, 60, 120, 180 and 240 minutes and optionally after 24 hours and added to 300 μl of acetonitrile. The precipitated plasma proteins were removed by centrifugation at 5000 rpm for 10 minutes, and 30 μl of the supernatant were analysed by HPLC for its content of unmodified test substance. Quantification was via the area percentages of the corresponding peaks.
HPLC Method for Rat Plasma:
Instrument: Agilent 1200 with DAD, binary pump, autosampler, column oven and thermostat; column: Kromasil 100 C18, 250 mm×4 mm, […]; column temperature: 45° C.; mobile phase A: 5 ml of perchloric acid/1 of water, mobile phase B: acetonitrile; gradient: 0-8 min 98% A, 2% B; 8-15 min 56% A, 44% B; […] 10% A, 90% B; 20-21 min 10% A, 90% B; […] 98% A, 2% B; […] 98% A, 2% B; flow rate: 2 ml/min; UV detection: 220 nm.
The test substance was incubated in rat or human plasma at 37° C. over a period of 5 h with gentle stirring. At different points in time (0, 2, 5, 10, 20, 30, 60, 120, 180 and 300 minutes), a 100 μl aliquot was removed. Following addition of internal standard (10 μl), the proteins were precipitated by addition of 200 μl of acetonitrile and the mixture was centrifuged in an Eppendorf centrifuge for 5 minutes. After addition of 150 μl of ammonium acetate buffer pH 3 to 150 μl of the supernatant, the content of unmodified test substance was analysed by LC/MSMS.

[4] = Homo sapiens, HT-29, HT29 wt cells
[5] = Homo sapiens, 786-0, 786-0 cells

Compound	pIC50 [1, 4]	pIC50 [2, 5]	further results
CC[C@H](C)[C@@H]([C@@H](CC(=O)N1CCC[C@H]1[C@H](OC)[C@@H](C)C(=O)N[C@@H](Cc1ccccc1)C(=O)N1CCCCO1)OC)N(C)C(=O)[C@@H](NC(=O)[C@H](C(C)C)N(C)CCO)C(C)C [Example 2, N-(2-Hydroxyethyl)-N-methyl-L-valyl-N-[(3R,4S,5S)-3-methoxy-1-{(2S)-2-[(1R,2R)-1-methoxy-2-methyl-3-{[(2S)-1-(1,2-oxazinan-2-yl)-1-oxo-3-phenylpropan-2-yl]amino}-3-oxopropyl]pyrrolidin-1-yl}-5-methyl-1-oxoheptan-4-yl]-N-methyl-L-valinamide] (X5-V[Dil][Dolaproine]F-{Oxazinan2yl(1,2)})	9.30	–	–
CC[C@H](C)[C@@H]([C@@H](CC(=O)N1CCC[C@H]1[C@H](OC)[C@@H](C)C(=O)N[C@@H](Cc1ccccc1)C(=O)N1OC2C=CC1CC2)OC)N(C)C(=O)[C@@H](NC(=O)[C@@H](NC)C(C)C)C(C)C (stereo partly drawn) [Example 6, N-Methyl-L-valyl-N-[(3R,4S,5S)-3-methoxy-1-{(2S)-2-[(1R,2R)-1-methoxy-2-methyl-3-{[(2S)-1-(2-oxa-3-azabicyclo[2.2.2]oct-5-en-3-yl)-1-oxo-3-phenylpropan-2-yl]amino}-3-oxopropyl]pyrrolidin-1-yl}-5-methyl-1-oxoheptan-4-yl]-N-methyl-L-valinamide, trifluoroacetic acid salt] (H-[NMeV]V[Dil][Dolaproine]F-X6)	–	9.30	–
CC[C@H](C)[C@@H]([C@@H](CC(=O)N1CCC[C@H]1[C@H](OC)[C@@H](C)C(=O)N[C@@H](Cc1ccccc1)C(=O)N1Cc2ccccc2CO1)OC)N(C)C(=O)[C@@H](NC(=O)[C@@H](NC)C(C)C)C(C)C [Example 8, N-Methyl-L-valyl-N-[(3R,4S,5S)-1-{(2S)-2-[(1R,2R)-3-{[(2S)-1-(1,4-dihydro-3H-2,3-benzoxazin-3-yl)-1-oxo-3-phenylpropan-2-yl]amino}-1-methoxy-2-methyl-3-oxopropyl]pyrrolidin-1-yl}-3-methoxy-5-methyl-1-oxoheptan-4-yl]-N-methyl-L-valinamide, trifluoroacetic acid salt] (H-[NMeV]V[Dil][Dolaproine]F-X3)	–	8.62	–
CC[C@H](C)[C@@H]([C@@H](CC(=O)N1CCC[C@H]1[C@H](OC)[C@@H](C)C(=O)N[C@@H](Cc1c[nH]c2ccccc12)C(=O)N1CCCCO1)OC)N(C)C(=O)[C@@H](NC(=O)[C@@H](NC)C(C)C)C(C)C [Example 9, N-Methyl-L-valyl-N-[(3R,4S,5S)-1-{(2S)-2-[(1R,2R)-3-{[(2S)-3-(1H-indol-3-yl)-1-(1,2-oxazinan-2-yl)-1-oxopropan-2-yl]amino}-1-methoxy-2-methyl-3-oxopropyl]pyrrolidin-1-yl}-3-methoxy-5-methyl-1-oxoheptan-4-yl]-N-methyl-L-valinamide, trifluoroacetic acid salt] (H-[NMeV]V[Dil][Dolaproine]W-{Oxazinan2yl(1,2)})	8.85	8.52	–
CC[C@H](C)[C@@H]([C@@H](CC(=O)N1CCC[C@H]1[C@H](OC)[C@@H](C)C(=O)N[C@@]1(C(=O)N2CCCCO2)C[C@H]1c1ccccc1)OC)N(C)C(=O)[C@@H](NC(=O)[C@@H](NC)C(C)C)C(C)C [Example 16, N-Methyl-L-valyl-N-[(3R,4S,5S)-3-methoxy-1-{(2S)-2-[(1R,2R)-1-methoxy-2-methyl-3-{[(1S,2S)-1-(1,2-oxazinan-2-ylcarbonyl)-2-phenylcyclopropyl]amino}-3-oxopropyl]pyrrolidin-1-yl}-5-methyl-1-oxoheptan-4-yl]-N-methyl-L-valinamide, trifluoroacetic acid salt] (H-[NMeV]V[Dil][Dolaproine][X4]-{Oxazinan2yl(1,2)})	–	8.10	half-life at 39.2 µg/ml [3]: 0.75 h
CC[C@H](C)[C@@H]([C@@H](CC(=O)N1CCC[C@H]1[C@H](OC)[C@@H](C)C(=O)N[C@@](C)(Cc1ccccc1)C(=O)N1CCCCO1)OC)N(C)C(=O)[C@@H](NC(=O)[C@@H](NC)C(C)C)C(C)C [Example 22, N-Methyl-L-valyl-N-[(3R,4S,5S)-3-methoxy-1-{(2S)-2-[(1R,2R)-1-methoxy-2-methyl-3-{[(2S)-2-methyl-1-(1,2-oxazinan-2-yl)-1-oxo-3-phenylpropan-2-yl]amino}-3-oxopropyl]pyrrolidin-1-yl}-5-methyl-1-oxoheptan-4-yl]-N-methyl-L-valinamide, trifluoroacetic acid salt] (H-[NMeV]V[Dil][Dolaproine][αMeF]-{Oxazinan2yl(1,2)})	–	–	half-life at 39.2 µg/ml [3]: 2 h
CC[C@H](C)[C@@H]([C@@H](CC(=O)N1CCC[C@H]1[C@H](OC)[C@@H](C)C(=O)N[C@@H](Cc1ccccc1)C(=O)N1CCCCO1)OC)N(C)C(=O)[C@@H](NC(=O)[C@H](C(C)C)N(C)CCCC(=O)O)C(C)C [Example 24, N-(3-Carboxypropyl)-N-methyl-L-valyl-N-[(3R,4S,5S)-3-methoxy-1-{(2S)-2-[(1R,2R)-1-methoxy-2-methyl-3-{[(2S)-1-(1,2-oxazinan-2-yl)-1-oxo-3-phenylpropan-2-yl]amino}-3-oxopropyl]-pyrrolidin-1-yl}-5-methyl-1-oxoheptan-4-yl]-N-methyl-L-valinamide] ({NMeVal(N-(CH2)3COOH)}-V[Dil][Dolaproine]F-{Oxazinan2yl(1,2)})	8.82	8.30	–
CC[C@H](C)[C@@H]([C@@H](CC(=O)N1CCC[C@H]1[C@H](OC)[C@@H](C)C(=O)N[C@@]1(C(=O)N2CCCCO2)C[C@@H]1c1ccccc1)OC)N(C)C(=O)[C@@H](NC(=O)[C@H](C(C)C)N(C)CCCCCC(=O)O)C(C)C [Example 26, N-(5-Carboxypentyl)-N-methyl-L-valyl-N-[(3R,4S,5S)-3-methoxy-1-{(2S)-2-[(1R,2R)-1-methoxy-2-methyl-3-{[(1S,2R)-1-(1,2-oxazinan-2-ylcarbonyl)-2-phenylcyclopropyl]amino}-3-oxopropyl]-pyrrolidin-1-yl}-5-methyl-1-oxoheptan-4-yl]-N-methyl-L-valinamide]	–	7.74	–
CC[C@H](C)[C@@H]([C@@H](CC(=O)N1CCC[C@H]1[C@H](OC)[C@@H](C)C(=O)N[C@@H](Cc1ccccc1)C(=O)N1CCCCO1)OC)N(C)C(=O)[C@@H](NC(=O)[C@H](C(C)C)N(C)CCCC(=O)OC)C(C)C [Example 29, N-(4-Methoxy-4-oxobutyl)-N-methyl-L-valyl-N-[(3R,4S,5S)-3-methoxy-1-{(2S)-2-[(1R,2R)-1-methoxy-2-methyl-3-{[(2S)-1-(1,2-oxazinan-2-yl)-1-oxo-3-phenylpropan-2-yl]amino}-3-oxopropyl]pyrrolidin-1-yl}-5-methyl-1-oxoheptan-4-yl]-N-methyl-L-valinamide] (X7-V[Dil][Dolaproine]F-{Oxazinan2yl(1,2)})	10.00	–	–
CC[C@H](C)[C@@H]([C@@H](CC(=O)N1CCC[C@H]1[C@H](OC)[C@@H](C)C(=O)N[C@@H](Cc1ccccc1)C(=O)O)OC)N(C)C(=O)[C@@H](NC(=O)[C@@H](NC)C(C)C)C(C)C [MMAF, Monomethylauristatin F, reference compound] (H-[NMeV]V[Dil][Dolaproine]F-OH)	–	–	pIC50 ([2]; 786-0 cells): 6.59; pIC50 ([1]; HT29 wt cells): 8.00
